# Laboratory results taken from PubChem BioAssay (NCI).
#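 Assay format: 96-well plates, 48-hour exposure. GI50 marks 50% less growth. Definition used: TGI = concentration required for complete inhibition of growth.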
# Legend:
# Test in all cases: NCI tumour cell line growth inhibition, 48 h
# ACHN renal = system: ACHN renal
# HCC-2998 colon = system: HCC-2998 colon
# MCF7 breast = system: MCF7 breast
# 786-0 renal = system: 786-0 renal
# UO-31 renal = system: UO-31 renal
# NCI-H460 lung = system: NCI-H460 lung
# UACC-62 melanoma = system: UACC-62 melanoma
# HT29 colon = system: HT29 colon
# OVCAR-5 ovarian = system: OVCAR-5 ovarian
# LOX IMVI melanoma = system: LOX IMVI melanoma
# UACC-257 melanoma = system: UACC-257 melanoma
# HOP-62 NSCLC = system: HOP-62 NSCLC
# SK-MEL-2 melanoma = system: SK-MEL-2 melanoma
# A498 renal = system: A498 renal
# SR leukemia = system: SR leukemia
# MDA-MB-435 = system: MDA-MB-435
# PC-3 prostate = system: PC-3 prostate
# MDA-MB-468 breast = system: MDA-MB-468 breast
# OVCAR-4 ovarian = system: OVCAR-4 ovarian
# M14 melanoma = system: M14 melanoma
# OVCAR-8 ovarian = system: OVCAR-8 ovarian
# NCI-H522 lung = system: NCI-H522 lung
# SF-268 CNS = system: SF-268 CNS
# NCI-H23 lung = system: NCI-H23 lung
# HCT-15 colon = system: HCT-15 colon
# NCI/ADR-RES ovarian = system: NCI/ADR-RES ovarian
# SNB-19 CNS = system: SNB-19 CNS
# SK-MEL-28 melanoma = system: SK-MEL-28 melanoma
# TK-10 renal = system: TK-10 renal
# HCT-116 colon = system: HCT-116 colon
# HOP-92 NSCLC = system: HOP-92 NSCLC
# SNB-75 CNS = system: SNB-75 CNS
# COLO 205 colon = system: COLO 205 colon
# SW-620 colon = system: SW-620 colon
# SK-MEL-5 melanoma = system: SK-MEL-5 melanoma
# MALME-3M melanoma = system: MALME-3M melanoma
# U251 CNS = system: U251 CNS
# EKVX NSCLC = system: EKVX NSCLC
# SK-OV-3 ovarian = system: SK-OV-3 ovarian
# IGROV1 ovarian = system: IGROV1 ovarian
# KM12 colon = system: KM12 colon
# DU-145 prostate = system: DU-145 prostate
# OVCAR-3 ovarian = system: OVCAR-3 ovarian
# A549 NSCLC = system: A549 NSCLC
# CCRF-CEM leukemia = system: CCRF-CEM leukemia
# NCI-H226 lung = system: NCI-H226 lung
# T-47D breast = system: T-47D breast
# MOLT-4 leukemia = system: MOLT-4 leukemia
# HS 578T breast = system: HS 578T breast
# SN12C renal = system: SN12C renal
# RXF 393 renal = system: RXF 393 renal
# CAKI-1 renal = system: CAKI-1 renal
# HL-60(TB) leukemia = system: HL-60(TB) leukemia
compound,measurement,setting,value
O=C(OCCOCCO)N(c1cccc(Br)c1)c1nc(SCCN2CCOCC2)nc2c1cnn2CC(Cl)c1ccc(Br)cc1 (stereo unspecified),GI50,ACHN renal,3.9 µM
same,TGI,ACHN renal,> 100 µM
same,GI50,HCC-2998 colon,3.84 µM
same,TGI,HCC-2998 colon,> 100 µM
same,GI50,MCF7 breast,3.15 µM
same,TGI,MCF7 breast,> 100 µM
same,GI50,786-0 renal,2.51 µM
same,TGI,786-0 renal,> 100 µM
same,GI50,UO-31 renal,4.57 µM
same,TGI,UO-31 renal,> 100 µM
same,GI50,NCI-H460 lung,3.77 µM
same,TGI,NCI-H460 lung,> 100 µM
same,GI50,UACC-62 melanoma,3.33 µM
same,TGI,UACC-62 melanoma,12.4 µM
same,GI50,HT29 colon,2.73 µM
same,TGI,HT29 colon,> 100 µM
same,GI50,OVCAR-5 ovarian,5.15 µM
same,TGI,OVCAR-5 ovarian,> 100 µM
same,GI50,LOX IMVI melanoma,1.72 µM
same,TGI,LOX IMVI melanoma,3.21 µM
same,GI50,UACC-257 melanoma,10.5 µM
same,TGI,UACC-257 melanoma,> 100 µM
same,GI50,HOP-62 NSCLC,4.41 µM
same,TGI,HOP-62 NSCLC,> 100 µM
same,GI50,SK-MEL-2 melanoma,6.68 µM
same,TGI,SK-MEL-2 melanoma,22.1 µM
same,GI50,A498 renal,> 100 µM
same,TGI,A498 renal,> 100 µM
same,GI50,SR leukemia,2 µM
same,TGI,SR leukemia,> 100 µM
same,GI50,MDA-MB-435,3.83 µM
same,TGI,MDA-MB-435,> 100 µM
same,GI50,PC-3 prostate,3.28 µM
same,TGI,PC-3 prostate,> 100 µM
same,GI50,MDA-MB-468 breast,2.47 µM
same,TGI,MDA-MB-468 breast,7.63 µM
same,GI50,OVCAR-4 ovarian,3.05 µM
same,TGI,OVCAR-4 ovarian,> 100 µM
same,GI50,M14 melanoma,3.67 µM
same,TGI,M14 melanoma,> 100 µM
same,GI50,OVCAR-8 ovarian,6.93 µM
same,TGI,OVCAR-8 ovarian,> 100 µM
same,GI50,NCI-H522 lung,3.15 µM
same,TGI,NCI-H522 lung,13.1 µM
same,GI50,SF-268 CNS,4.82 µM
same,TGI,SF-268 CNS,> 100 µM
same,GI50,NCI-H23 lung,3.27 µM
same,TGI,NCI-H23 lung,15 µM
same,GI50,HCT-15 colon,2.84 µM
same,TGI,HCT-15 colon,10.1 µM
same,GI50,NCI/ADR-RES ovarian,3.52 µM
same,TGI,NCI/ADR-RES ovarian,> 100 µM
same,GI50,SNB-19 CNS,9.17 µM
same,TGI,SNB-19 CNS,24.8 µM
same,GI50,SK-MEL-28 melanoma,3.35 µM
same,TGI,SK-MEL-28 melanoma,18 µM
same,GI50,TK-10 renal,93.4 µM
same,TGI,TK-10 renal,> 100 µM
same,GI50,HCT-116 colon,2.62 µM
same,TGI,HCT-116 colon,> 100 µM
same,GI50,HOP-92 NSCLC,7.62 µM
same,TGI,HOP-92 NSCLC,> 100 µM
same,GI50,SNB-75 CNS,3.34 µM
same,TGI,SNB-75 CNS,> 100 µM
same,GI50,COLO 205 colon,1.99 µM
same,TGI,COLO 205 colon,4.43 µM
same,GI50,SW-620 colon,3.71 µM
same,TGI,SW-620 colon,> 100 µM
same,GI50,SK-MEL-5 melanoma,10.1 µM
same,TGI,SK-MEL-5 melanoma,70.7 µM
same,GI50,MALME-3M melanoma,3.17 µM
same,TGI,MALME-3M melanoma,17.8 µM
same,GI50,U251 CNS,6.39 µM
same,TGI,U251 CNS,> 100 µM
same,GI50,EKVX NSCLC,5.55 µM
same,TGI,EKVX NSCLC,> 100 µM
same,GI50,SK-OV-3 ovarian,5.21 µM
same,TGI,SK-OV-3 ovarian,> 100 µM
same,GI50,IGROV1 ovarian,8.25 µM
same,TGI,IGROV1 ovarian,> 100 µM
same,GI50,KM12 colon,3.88 µM
same,TGI,KM12 colon,> 100 µM
same,GI50,DU-145 prostate,9.88 µM
same,TGI,DU-145 prostate,> 100 µM
same,GI50,OVCAR-3 ovarian,5.54 µM
same,TGI,OVCAR-3 ovarian,> 100 µM
same,GI50,A549 NSCLC,5.04 µM
same,TGI,A549 NSCLC,> 100 µM
same,GI50,CCRF-CEM leukemia,2.89 µM
same,TGI,CCRF-CEM leukemia,12.1 µM
same,GI50,NCI-H226 lung,5.63 µM
same,TGI,NCI-H226 lung,> 100 µM
same,GI50,T-47D breast,5 µM
same,TGI,T-47D breast,> 100 µM
same,GI50,MOLT-4 leukemia,2.31 µM
same,TGI,MOLT-4 leukemia,6.51 µM
same,GI50,HS 578T breast,3.59 µM
same,TGI,HS 578T breast,> 100 µM
same,GI50,SN12C renal,4.91 µM
same,TGI,SN12C renal,> 100 µM
same,GI50,RXF 393 renal,1.78 µM
same,TGI,RXF 393 renal,5.05 µM
same,GI50,CAKI-1 renal,4.38 µM
same,TGI,CAKI-1 renal,> 100 µM
same,GI50,HL-60(TB) leukemia,2.36 µM
same,TGI,HL-60(TB) leukemia,6.25 µM
